We go through 23 molecules from patent publication US8445505B2 (IRM LLC, priority 2008, dated 2013).

pIC50: −log10 of the molar value.

IGF1R Ba/F3, sequence (P08069 999-1274 limits assumed): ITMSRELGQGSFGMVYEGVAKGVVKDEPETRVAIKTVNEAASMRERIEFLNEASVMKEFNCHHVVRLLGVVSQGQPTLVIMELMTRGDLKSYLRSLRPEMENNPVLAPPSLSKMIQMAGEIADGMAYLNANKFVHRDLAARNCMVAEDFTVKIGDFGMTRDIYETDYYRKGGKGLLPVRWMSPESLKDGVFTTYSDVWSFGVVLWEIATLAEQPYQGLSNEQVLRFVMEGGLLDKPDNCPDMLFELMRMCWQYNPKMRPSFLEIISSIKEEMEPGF

This test concerns the target IGF1R Ba/F3 (Homo sapiens, UniProt P08069). Nature of the test: Ba/F3 Cell Viability Inhibition Assay (Tel-TK transformed Ba/F3 lines). The format is cell-based, murine. More on the design: the printed alternative. The following applies: Tel-TK (IGF1R) transformed Ba/F3 cells, 48 hours incubation, cell viability (Britelite luminescence). From the text:
Ba/F3 is a murine IL-3-dependent pro-B lymphoma cell line. Parental Ba/F3 cells are used to generate a panel of sublines whose proliferation and survival is rendered IL-3-independent by stable transduction with individual tyrosine kinases activated by fusion with the amino-terminal portion of TEL (amino acid 1-375) or BCR. In order to generate Ba/F3 cell lines transformed by Tel-Tyrosine Kinase (TK) fusions, parental Ba/F3 cells are infected with a retrovirus harboring each TEL-fusion kinase and subjected to puromycin selection and IL-3 withdrawal to obtain IL-3-independent, transformed Ba/F3 cells.
Each transformed Ba/F3 cells are cultured in RPMI-1640 media (Gibco Cat #11875093, Carlsbad, Calif.) supplemented with 10% FBS (Hyclone Cat #SV30014.03, Logan, Utah), 4.5 g/L glucose (Sigma #G5400, St.Louis, Mo.), 1.5 g/L sodium bicarbonate (Biowhittaker #17-613E, Walkersville, Md.) and Pen/Strep (Gibco #10378-016, Carlsbad, Calif.). Cells are splitted twice weekly.
The potency of test compounds against various Tel-TK transformed Ba/F3 lines is determined as follows. Exponentially growing BaF3 Tel-TK cells are diluted in fresh medium to 75,000 cells/mL and seeded into 384-well plates (3750 cells/well) at 50 μL/well using a gill liquid dispenser (BioTek, Winooski, Vt., USA). Duplicate plates are run for each cell line. Test and control compounds are serially diluted with DMSO and arrayed in a polypropylene 384-well plate. 50 nL of compound is transferred into the assay plates using a pin-transfer device, and the plates are incubated at 37° C. (5% CO2) for 48 hours. 25 μL Britelite (Perkin Elmer) is added and luminescence is quantified using Analyst GT (Molecular Devices). Custom curve-fitting software is used to produce a logistic fit of percent cell viability as a function of the logarithm of inhibitor concentration. The IC50 is interpolated as the concentration of compound needed to reduce cell viability to 50% of a DMSO control. Parental Ba/F3 cells that are maintained and cultured in presence of IL-3 (1 ng/ml in final) are diluted in fresh medium containing IL-3 (1 ng/ml in final) to 75,000 cells/mL following the same procedure as described above.
Consider `Cc1cc(Nc2nc(Nc3cc(C)c([C@H]4CC[C@@H](NC5CC5)CC4)cc3C)ncc2Cl)n[nH]1` [Compound 47, Cis-5-chloro-N2-(4-(4-(cyclopropylamino)cyclohexyl)-2,5-dimethylphenyl)-N4-(5-methyl-1H-pyrazol-3-yl)pyrimidine-2,4-diamine], for which the negative-log IC50 (pIC50) – broadly, the IC50 on a negative log10 scale, so that one unit is a factor of ten – was 7.77.

`Cc1cc(Nc2nc(Nc3cc(C)c(-c4ccccn4)cc3F)ncc2Cl)n[nH]1` [Compound 6, 5-chloro-N2-(2-fluoro-5-methyl-4-(pyridin-2-yl)phenyl)-N4-(5-methyl-1H-pyrazol-3-yl)pyrimidine-2,4-diamine] showed a pIC50 of 6.53.

`Cc1cc(Nc2nc(Nc3cc(C)c([C@H]4CC[C@@H](N5CCNCC5)CC4)cc3F)ncc2Cl)n[nH]1` [Compound 58, 5-chloro-N2-(2-fluoro-5-methyl-4-((cis)-4-(piperazin-1-yl)cyclohexyl)phenyl)-N4-(5-methyl-1H-pyrazol-3-yl)pyrimidine-2,4-diamine] showed a pIC50 of 7.77. Compared with the last molecule, the pIC50 is 1.24 log units higher.

`Cc1cc(-c2cc(F)c(Nc3ncc(Cl)c(Nc4cc(C)[nH]n4)n3)cc2C)ccn1` [Compound 9, 5-chloro-N2-(2-fluoro-5-methyl-4-(2-methylpyridin-4-yl)phenyl)-N4-(5-methyl-1H-pyrazol-3-yl)pyrimidine-2,4-diamine]: the negative-log IC50 (pIC50) is 7.03.

The molecule `Cc1cc(Nc2nc(Nc3cc(C)c([C@H]4CC[C@H](N5CCOCC5)CC4)cc3C)ncc2C(F)(F)F)n[nH]1` [Compound 67, N^2-(2,5-dimethyl-4-(trans-4-morpholinocyclohexyl)phenyl)-N^4-(5-methyl-1H-pyrazol-3-yl)-5-(trifluoromethyl)pyrimidine-2,4-diamine] gave a pIC50 of 8.05.

In turn, `Cc1cc(Nc2nc(Nc3cc(C)c([C@H]4CC[C@@H](N5CCOCC5)CC4)cc3C)ncc2C(F)(F)F)n[nH]1` [Compound 66, N^2-(2,5-dimethyl-4-(cis-4-morpholinocyclohexyl)phenyl)-N^4-(5-methyl-1H-pyrazol-3-yl)-5-(trifluoromethyl)pyrimidine-2,4-diamine] had a pIC50 of 7.85.

For `C/C(=N\OCCO)c1cc(C)c(Nc2ncc(Cl)c(Nc3cc(C)[nH]n3)n2)cc1C` [Compound 28, 1-(4-(5-chloro-4-(5-methyl-1H-pyrazol-3-ylamino)pyrimidin-2-ylamino)-2,5-dimethylphenyl)ethanone O-2-hydroxyethyloxime], the pIC50 is 6.85. This pIC50 is 1.00 log units lower than that of the molecule before.

Molecule `Cc1cc(Nc2nc(Nc3cc(C)c([C@H]4CC[C@H](N5CCCCC5)CC4)cc3F)ncc2C(F)(F)F)n[nH]1` [Compound 63, N^2-(2-fluoro-5-methyl-4-(trans-4-(piperidin-1-yl)cyclohexyl)phenyl)-N^4-(5-methyl-1H-pyrazol-3-yl)-5-(trifluoromethyl)pyrimidine-2,4-diamine] showed a pIC50 of 7.80.

As to `Cc1cc(Nc2nc(Nc3cc(C)c([C@H]4CC[C@@H](N5CCN(C)CC5)CC4)cc3F)ncc2Cl)n[nH]1` [Compound 52, Cis-5-chloro-N2-(2-fluoro-5-methyl-4-(4-(4-methylpiperazin-1-yl)cyclohexyl)phenyl)-N4-(5-methyl-1H-pyrazol-3-yl)pyrimidine-2,4-diamine], the negative logarithm of the IC50 (pIC50) was 7.62. This pIC50 and that of the molecule before are within 0.2 log units of each other.

`Cc1cc(Nc2nc(Nc3cc(C)c(-c4ccc5c(c4)CCNC5)cc3C)ncc2Cl)n[nH]1` [Compound 74, 5-chloro-N2-(2,5-dimethyl-4-(1,2,3,4-tetrahydroisoquinolin-6-yl)phenyl)-N4-(5-methyl-1H-pyrazol-3-yl)pyrimidine-2,4-diamine] gave a negative logarithm of the IC50 (pIC50) of 7.06.

`CNC(=O)c1ccc(-c2cc(C)c(Nc3ncc(Cl)c(Nc4cc(C)[nH]n4)n3)cc2C)cn1` [Compound 14, 5-(4-(5-chloro-4-(5-methyl-1H-pyrazol-3-ylamino)pyrimidin-2-ylamino)-2,5-dimethylphenyl)-N-methylpicolinamide] had a negative logarithm of the IC50 (pIC50) of 7.82.

Consider `Cc1cc(Nc2nc(Nc3cc(C)c(-c4cnn(C)c4)cc3F)ncc2Cl)n[nH]1` [Compound 1, 5-chloro-N2-(2-fluoro-5-methyl-4-(1-methyl-1H-pyrazol-4-yl)phenyl)-N4-(5-methyl-1H-pyrazol-3-yl)pyrimidine-2,4-diamine], for which the negative logarithm of the IC50 (pIC50) is 7.17.

`C/C(=N\OCCN(C)C)c1cc(C)c(Nc2ncc(Cl)c(Nc3cc(C)[nH]n3)n2)cc1C` [Compound 35, 1-(4-(5-chloro-4-(5-methyl-1H-pyrazol-3-ylamino)pyrimidin-2-ylamino)-2,5-dimethylphenyl)ethanone O-2-(dimethylamino)ethyl oxime] had a pIC50 of 6.92.

`Cc1cc(Nc2nc(Nc3cc(C)c(C(=O)NCCN(C)C)cc3C)ncc2Cl)n[nH]1` [Compound 31, 4-(5-chloro-4-(5-methyl-1H-pyrazol-3-ylamino)pyrimidin-2-ylamino)-N-(2-(dimethylamino)ethyl)-2,5-dimethylbenzamide] had a pIC50 of 6.18. Against the preceding molecule, the pIC50 is 0.74 log units lower.

For `Cc1cc(Nc2nc(Nc3cc(C)c(C4CCC(=O)CC4)cc3C)ncc2C(F)(F)F)n[nH]1` [Compound 40, 4-(2,5-dimethyl-4-(4-(5-methyl-1H-pyrazol-3-ylamino)-5-(trifluoromethyl)pyrimidin-2-ylamino)phenyl)cyclohexanone], the negative-log IC50 (pIC50) was 7.31. This pIC50 lies 1.13 log units higher than the previous one.

For the molecule `C/C(=N\O)c1cc(C)c(Nc2ncc(Cl)c(Nc3cc(C)[nH]n3)n2)cc1C` [Compound 29, 1-(4-(5-chloro-4-(5-methyl-1H-pyrazol-3-ylamino)pyrimidin-2-ylamino)-2,5-dimethylphenyl)ethanone oxime], the pIC50 is 7.29.

Molecule `Cc1cc(Nc2nc(Nc3cc4c(cc3F)CN(C3CCNCC3)C4=O)ncc2Cl)n[nH]1` [Compound 79, 6-(5-chloro-4-(5-methyl-1H-pyrazol-3-ylamino)pyrimidin-2-ylamino)-5-fluoro-2-(piperidin-4-yl)isoindolin-1-one] had a negative-log IC50 (pIC50) of 5.19.

In the case of `Cc1ccc(-c2cc(C)c(Nc3ncc(Cl)c(Nc4cc(C)[nH]n4)n3)cc2C)cn1` [Compound 16, 5-chloro-N2-(2,5-dimethyl-4-(6-methylpyridin-3-yl)phenyl)-N4-(5-methyl-1H-pyrazol-3-yl)pyrimidine-2,4-diamine], the pIC50 was 7.52.

With `Cc1cc(Nc2nc(Nc3cc(C)c(CN4CCOCC4)cc3C)ncc2Cl)n[nH]1` [Compound 39, 5-Chloro-N^2-(2,5-dimethyl-4-(morpholinomethyl)phenyl)-N^4-(5-methyl-1H-pyrazol-3-yl)pyrimidine-2,4-diamine], the negative logarithm of the IC50 (pIC50) is 6.82.

As for `Cc1cc(Nc2nc(Nc3cc4c(cc3F)CN(C3CCNCC3)C4=O)ncc2Cl)no1` [Compound 80, 6-(5-chloro-4-(5-methylisoxazol-3-ylamino)pyrimidin-2-ylamino)-5-fluoro-2-(piperidin-4-yl)isoindolin-1-one], the negative-log IC50 (pIC50) is 5.58.

In the case of `Cc1cc(-c2cc(C)c(Nc3ncc(Cl)c(Nc4cc(C)[nH]n4)n3)cc2C)ccn1` [Compound 15, 5-chloro-N2-(2,5-dimethyl-4-(2-methylpyridin-4-yl)phenyl)-N4-(5-methyl-1H-pyrazol-3-yl)pyrimidine-2,4-diamine], the pIC50 is 7.41.

As to `Cc1cc(-c2cc(C)c(Nc3ncc(Cl)c(Nc4cc(C)[nH]n4)n3)cc2C)on1` [Compound 18, 5-chloro-N2-(2,5-dimethyl-4-(3-methylisoxazol-5-yl)phenyl)-N4-(5-methyl-1H-pyrazol-3-yl)pyrimidine-2,4-diamine], the pIC50 is 6.56. Compared with the last molecule, the pIC50 is 0.85 log units lower.

With `CCN1CCc2ccc(Nc3ncc(Cl)c(Nc4cc(C)[nH]n4)n3)cc2CC1` [Compound 89], the negative logarithm of the IC50 (pIC50) is 7.06.
